According to patent publication US9120789B2, “1-(5-tert-butyl-2-phenyl-2H-pyrazol-3-yl)-3-[2-fluoro-4-(1-methyl-2-oxo-2,3-dihydro-1H-imidazo[4,5-b]pyridin-7-yloxy)-phenyl]-urea and related compounds and their use in therapy” (CANCER RESEARCH TECHNOLOGY LIMITED, priority 2010, dated 2015):

Columns and labels:
[1] = tested on: A375M melanoma cell line (mutant BRAF); test: Assay C - SRB cell proliferation assay, A375M; assay type: cell-based; conditions: Homo sapiens, 120 h, 5 days growth
Method: (§1) Values for the blank (no cells) are subtracted from all values. The DMSO controls are set as 100% activity and assay points (the response) are calculated as a percentage of the DMSO control. Data are plotted using Graphpad Prism software and a non-linear regression line is calculated using a variable slope sigmoidal dose-response equation: Y=Bottom+[Top−Bottom]/[1+10^((Log EC50−X)*HillSlope)] where X is the logarithm of concentration and Y is the response). The IC50 generated by this procedure is the concentration of the drug that produces a percentage control fluorescence value midway between the saturation, and zero-effect plateaus. Three independent assays are usually performed and the mean IC50 is reported. Biological Methods—Assay C—SRB Cell Proliferation Assay (SRB GI50)
(§2) Cell lines (e.g., WM266.4 and A375M melanoma cell lines; SW620 colorectal carcinoma cell line) are routinely cultured in DMEM or RPMI1640 supplemented with 10% foetal bovine serum, at 37° C., in 10% CO2 water saturated atmosphere. Cultures are maintained in exponential growth phase by sub-culturing before having become confluent (3-5 day intervals). Single cell suspensions are prepared by harvesting an 80 cm^2 tissue culture flask with 5 mL commercial trypsin EDTA. After 5 minutes, the detached cells are mixed with 5 mL fully complemented culture medium and centrifugally pelleted (1000 rpm for 7 minutes). After aspirating the supernatant, the cell pellet is re-suspended in 10 mL fresh medium and the cells fully disaggregated by drawing the whole volume up/down 5 times through a 19-gauge needle. The concentration of the cells is determined using a haemocytometer ( 1/10 dilution). A suitable volume to give at least a 2-fold excess for the number of tests being conducted, typically 100-200 mL, is prepared by diluting the cell suspension to 10,000-40,000/mL, and 100 μL/well dispensed into 96 well plates using a programmable 8-channel peristaltic pump, giving 1000-4000 cells/well, leaving column 12 blank. The plates are returned to the incubator for 24 hours to allow the cells to re-attach.
(§3) The compounds being tested are prepared at 10 mM in DMSO. Aliquots (24 μL) are diluted into 1.2 mL culture medium giving 200 μM, and 10 serial dilutions of 3× performed by transferring 80 μL to 160 μL. Aliquots (100 μL) of each dilution are added to the wells, using an 8-channel pipettor, thus performing a final further 2× dilution, and giving doses ranging from 100 μM to 0.005 μM. Column 11 receives plain culture medium only. Each compound is tested in quadruplicate, each replicate being the average of four wells.
(§4) After a further 5 days growth, the plates are emptied, and the cells are fixed in 10% trichloroacteic acid for 30 minutes at 4° C. After thorough rinsing in running tap water, the plates are dried, and stained by adding 50 μL of a solution of 0.1% sulphorhodamine-B in 1% acetic acid, for 10 minutes at room temperature. The stain is poured out and the plates thoroughly rinsed under a stream of 1% acetic acid, thus removing unbound stain, and dried. The bound stain is taken into solution by addition of 100 μL Tris buffer pH 8, followed by 10 minutes on a plate-shaker (approximately 500 rpm). The absorbance at 540 nm in each well (being proportional to the number of cells present) is determined using a plate reader.
(§5) After averaging the blank values in column 12 this was subtracted from all values, and results expressed as a percentage of the untreated value (column 11). […] The GI50 generated by this procedure is the concentration of the drug that produces a percentage control A540 midway between the saturation, and zero-effect plateaus.

[2] = tested on: pERK in mutant BRAF WM266.4 cells; test: Assay B - cell based phospho-ERK assay; conditions: Homo sapiens, WM 266-4, 6 hours incubation
Method: as §1, with “(Empty Vector)” for “(no cells)”, “response.” for “response).”, “B—Cell Based Phosho-ERK” for “C—SRB Cell Proliferation”, “Assay” for “Assay (SRB GI50)”
Compounds were assessed using a cell-based assay which was performed according to the following protocol.
Plate out 16,000 mutant BRAF WM266.4 cells/well in 99 μL medium in a 96-well plate.
1. Add 1 μL inhibitor (test compound) to the cells (total […]).
2. Incubate the cells with test compound for 6 hours at 37° C.
3. Aspirate off the solution from all of the wells.
4. Fixate the cells with 100 μL 4% formaldehyde/0.25% Triton X-100 PBS per well.
5. Incubate the plate for 1 hour at 4° C.
6. Aspirate off the fixing solution and add 300 μL TBS per well.
7. Leave the plate overnight at 4° C.
1. Wash the plate 2× with 200 μL PBS per well.
2. Block with 100 μL 5% dried milk in TBS.
3. Incubate the plate for 20 minutes at 37° C.
4. Wash the plate 2× with 0.1% tween/H2O.
5. Add 50 μL of 3 μg/mL primary antibody pERK (Sigma M8159), diluted in 5% milk powder/TBS, to each well.
6. Incubate the plate for 2 hours at 37° C.
7. Wash the plate 3× with 0.1% tween/H2O.
8. Add 50 μL of 0.45 μg/mL secondary Europium-labelled anti-mouse antibody (Perkin Elmer) to each well.
9. Incubate the plate for 1 hour at 37° C.
10. Wash the plate 3× with 0.1% tween/H2O.
11. Add 100 μL enhancement solution (Perkin Elmer) to each well.
12. Leave the plate for approximately 10 minutes at room temperature before gently shaking the plate.
13. Read Europium Time Resolved Fluorescence in Victor2.
14. Wash the plate 2× with 0.1% tween/H2O.
15. Measure the protein concentration with BCA (Sigma) by adding 200 μL of solution per well.
16. Incubate the plate for 30 minutes at 37° C.
17. Read absorbance levels at 570 nm in a plate reader.
Note that Europium counts are normalised for protein levels by dividing counts by absorbance.
as §1

[3] = tested on: SW620 colorectal carcinoma cell line (mutant RAS); test: Assay C - SRB cell proliferation assay, SW620; assay type: cell-based; conditions: Homo sapiens, SW-620, 120 h; SW620, 5 days growth
Method: as §1, §2, §3, §4, §5

[4] = tested on: SW620 human colorectal carcinoma cells (mutant RAS) xenograft; test: Xenograft study, mutant RAS SW620; assay type: in vivo, mice; conditions: for Effect on tumour volume as compared to the control (in words) / Factor of tumour volume reduction as compared to the control: SW620 xenograft; for Ratio of: Tumour Volume (Treatment)/Tumour Volume (Control) (mutant RAS SW620 xenograft): athymic mice, gavage once daily for 24 doses; for Factor of tumour volume reduction as compared to the control: over the timescale of the study
Method: Biological Methods—Xenograft Studies
SW620 human colorectal carcinoma cells (mutant RAS, 7×10^7) or A375M human melanoma cells (mutant BRAF, 10^7) were inoculated sub-cutaneously in suspension (0.2 mL) into the right flank of female Crl:CD1-Foxn1nu athymic mice. Groups were assigned to treatment following stratified allocation of tumour volumes. Treatment with test compound began between days 11-14 post-cell administration. For gavage, a suspension (DMSO:water, 1:19, v/v at 10 m L/kg) was administered. Control animals received a similar dosage of vehicle (DMSO:water, 1:19, v/v). Treatment with test compound was continued once daily for 24 doses.

Structure (SMILES) | GI50 [1] [nM] | IC50 [2] [nM] | GI50 [3] [nM] | Effect on tumour volume as compared to the control (in words) [4] | Ratio of: Tumour Volume (Treatment)/Tumour Volume (Control) (mutant RAS SW620 xenograft) [4] | Factor of tumour volume reduction as compared to the control [4]
Cn1c(=O)[nH]c2nccc(Oc3ccc(NC(=O)Nc4cc(C(C)(C)C)nn4-c4ccccc4)c4ccccc34)c21 [BB-01, 1-(3-Tert-butyl-1-phenyl-1H-pyrazol-5-yl)-3-(4-(1-methyl-2-oxo-2,3-dihydro-1H-imidazo[4,5-b]pyridin-7-yloxy)naphthalen-1-yl)urea] | 52 | 19 | 1600 | – | – | –
Cn1c(=O)[nH]c2nccc(Oc3ccc(NC(=O)Nc4cc(C(C)(C)C)nn4-c4ccccc4)c(F)c3)c21 [AA-01, 1-(3-Tert-butyl-1-phenyl-1H-pyrazol-5-yl)-3-(2-fluoro-4-(1-N-methyl-2-oxo-2,3-dihydro-1H-imidazo[4,5-b]pyridin-7-yloxy)phenyl)urea] | 138 | 260 | 167 | statistically significant efficacy | 0.34 | about 3
Cc1ccc(-n2nc(C(C)(C)C)cc2NC(=O)Nc2ccc(Oc3ccnc4[nH]c(=O)n(C)c34)c3ccccc23)cc1 [BB-02, 1-(1-N-p-tolyl-3-tert-butyl-pyrazol-5-yl)-3-(4-(2-oxo-2,3-dihydro-1-N-methyl-1H-imidazo[4,5-b]pyridin-7-yl-oxy)naphthalen-1-yl)urea] | 101 | 26 | 1680 | statistically significant efficacy | 0.66 | about 1.5

Continued, in another order:

GI50 [1] [nM] | IC50 [2] [nM] | GI50 [3] [nM] | Structure (SMILES) | Effect on tumour volume as compared to the control (in words) [4] | Ratio of: Tumour Volume (Treatment)/Tumour Volume (Control) (mutant RAS SW620 xenograft) [4] | Factor of tumour volume reduction as compared to the control [4]
250 | 90 | 450 | Cc1ccc(-n2nc(C(C)(C)C)cc2NC(=O)Nc2ccc(Oc3ccnc4[nH]c(=O)n(C)c34)cc2)cc1 [XX-02, 1-(1-N-p-tolyl-3-tert-butyl-pyrazol-5-yl)-3-(4-(2-oxo-2,3-dihydro-1-N-methyl-1H-imidazo[4,5-b]pyridin-7-yl-oxy)phenyl)urea] | relatively little effect | 0.95 | –
1130 | 620 | 840 | CC(C)(C)c1cc(NC(=O)Nc2ccc(Oc3ccnc4[nH]c(=O)[nH]c34)cc2)n(-c2ccccc2)n1 [XX-01, 1-(5-Tert-butyl-2-phenyl-2H-pyrazol-3-yl)-3-[4-(2-oxo-2,3-dihydro-1H-imidazo[4,5-b]pyridin-7-yloxy)-phenyl]-urea] | relatively little effect | >1 | –
307 | 200 | 2720 | CC(C)(C)c1cc(NC(=O)Nc2ccc(Oc3ccnc4[nH]c(=O)[nH]c34)cc2)n(-c2ccc(F)cc2)n1 [XX-04, 1-[5-tert-Butyl-2-(4-fluoro-phenyl)-2H-pyrazol-3-yl]-3-[4-(2-oxo-2,3-dihydro-1H-imidazo[4,5-b]pyridin-7-yloxy)-phenyl]urea] | relatively little effect | 0.87 | –
247 | 120 | 6830 | Cn1c(=O)n(C)c2c(Oc3ccc(NC(=O)Nc4cc(C(C)(C)C)nn4-c4ccccc4)c(F)c3)ccnc21 [XX-03, 1-(3-Tert-butyl-1-phenyl-1H-pyrazol-5-yl)-3-(4-(1,3-dimethyl-2-oxo-2,3-dihydro-1H-imidazo[4,5-b]pyridin-7-yloxy)-2-fluorophenyl)urea] | relatively little effect | 0.97 | –
